Values quoted from earlier work, collected in publication PMC7575488, “Phase 1 dose-escalation study of a novel oral PI3K/mTOR dual inhibitor, LY3023414, in patients with cancer” (Investigational New Drugs, 2020).

Settings: cited from earlier work; for Stomatitis, mucositis, and mouth sores: clinical studies with mTOR inhibitors

| SMILES | Stomatitis, mucositis, and mouth sores [%] | Incidence of ILD (Japan, ref interim report on surveillance of everolimus-induced ILD in Japan) [%] |
| --- | --- | --- |
| CO[C@H]1C[C@@H]2CC[C@@H](C)[C@@](O)(O2)C(=O)C(=O)N2CCCC[C@H]2C(=O)O[C@H]([C@H](C)C[C@@H]2CC[C@@H](OP(C)(C)=O)[C@H](OC)C2)CC(=O)[C@H](C)/C=C(\C)[C@@H](O)[C@@H](OC)C(=O)[C@H](C)C[C@H](C)/C=C/C=C/C=C/1C [deforolimus] | 78 | – |
| CO[C@H]1C[C@@H]2CC[C@@H](C)[C@@](O)(O2)C(=O)C(=O)N2CCCC[C@H]2C(=O)O[C@H]([C@H](C)C[C@@H]2CC[C@@H](OCCO)[C@H](OC)C2)CC(=O)[C@H](C)/C=C(\C)[C@@H](O)[C@@H](OC)C(=O)[C@H](C)C[C@H](C)/C=C/C=C/C=C/1C [everolimus] | 41 | 17.4 |
